Structures are written as SMILES.

Data on 15 compounds can be found in ChEMBL document CHEMBL5291721, “A preclinical secondary pharmacology resource illuminates target-adverse drug reaction associations of marketed drugs” (Nat Commun, 2023).

In assay [1] the target is T1, Muscarinic acetylcholine receptor M1 (Homo sapiens, UniProt P11229).
T1 sequence (P11229 whole entry): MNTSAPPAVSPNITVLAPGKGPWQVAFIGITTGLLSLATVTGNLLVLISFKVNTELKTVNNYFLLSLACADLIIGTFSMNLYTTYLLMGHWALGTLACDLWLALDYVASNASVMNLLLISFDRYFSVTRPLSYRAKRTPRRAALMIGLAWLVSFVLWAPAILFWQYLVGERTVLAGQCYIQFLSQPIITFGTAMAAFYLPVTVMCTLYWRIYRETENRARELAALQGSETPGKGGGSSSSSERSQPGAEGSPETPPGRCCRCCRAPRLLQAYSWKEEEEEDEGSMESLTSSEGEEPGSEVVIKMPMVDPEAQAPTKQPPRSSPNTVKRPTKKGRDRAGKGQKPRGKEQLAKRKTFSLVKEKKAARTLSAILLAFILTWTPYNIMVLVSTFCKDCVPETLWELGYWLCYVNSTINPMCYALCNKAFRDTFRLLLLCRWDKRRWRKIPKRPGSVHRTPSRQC
Type of assay: functional.

The target of assay [2] is Gamma-aminobutyric acid receptor subunit alpha-1 (Rattus norvegicus, UniProt P62813).
Sequence of Gamma-aminobutyric acid receptor subunit alpha-1 (P62813 whole entry): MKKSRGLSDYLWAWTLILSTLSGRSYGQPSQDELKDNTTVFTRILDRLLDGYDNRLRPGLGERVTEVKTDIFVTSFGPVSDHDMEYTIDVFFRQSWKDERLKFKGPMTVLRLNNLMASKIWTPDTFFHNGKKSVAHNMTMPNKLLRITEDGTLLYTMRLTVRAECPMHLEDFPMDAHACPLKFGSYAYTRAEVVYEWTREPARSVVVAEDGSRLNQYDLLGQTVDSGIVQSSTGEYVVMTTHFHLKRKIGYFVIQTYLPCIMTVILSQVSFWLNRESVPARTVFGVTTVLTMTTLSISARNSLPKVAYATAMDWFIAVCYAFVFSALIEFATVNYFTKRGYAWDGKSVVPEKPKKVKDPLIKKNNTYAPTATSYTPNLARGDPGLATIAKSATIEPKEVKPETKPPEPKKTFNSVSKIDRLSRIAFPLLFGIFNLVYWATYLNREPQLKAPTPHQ
Assay [3] concerns the target T2, Alpha-1A adrenergic receptor (Homo sapiens, UniProt P35348).
T2 sequence (P35348 whole entry): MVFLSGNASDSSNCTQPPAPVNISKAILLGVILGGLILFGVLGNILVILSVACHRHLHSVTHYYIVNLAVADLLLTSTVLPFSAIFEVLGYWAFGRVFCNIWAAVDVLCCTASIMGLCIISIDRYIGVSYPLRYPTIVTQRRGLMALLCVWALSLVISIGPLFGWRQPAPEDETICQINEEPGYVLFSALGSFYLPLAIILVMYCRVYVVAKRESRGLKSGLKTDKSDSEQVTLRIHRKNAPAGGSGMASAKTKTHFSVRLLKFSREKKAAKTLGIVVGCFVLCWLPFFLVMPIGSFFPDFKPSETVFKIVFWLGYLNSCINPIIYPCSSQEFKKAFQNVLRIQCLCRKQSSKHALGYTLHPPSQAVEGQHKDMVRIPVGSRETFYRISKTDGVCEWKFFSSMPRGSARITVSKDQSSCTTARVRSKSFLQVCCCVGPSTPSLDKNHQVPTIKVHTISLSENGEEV
It is filed as functional, cell-based.

For assay [4], the target named is T3, Cannabinoid receptor 1 (Homo sapiens, UniProt P21554).
T3 sequence (P21554 whole entry): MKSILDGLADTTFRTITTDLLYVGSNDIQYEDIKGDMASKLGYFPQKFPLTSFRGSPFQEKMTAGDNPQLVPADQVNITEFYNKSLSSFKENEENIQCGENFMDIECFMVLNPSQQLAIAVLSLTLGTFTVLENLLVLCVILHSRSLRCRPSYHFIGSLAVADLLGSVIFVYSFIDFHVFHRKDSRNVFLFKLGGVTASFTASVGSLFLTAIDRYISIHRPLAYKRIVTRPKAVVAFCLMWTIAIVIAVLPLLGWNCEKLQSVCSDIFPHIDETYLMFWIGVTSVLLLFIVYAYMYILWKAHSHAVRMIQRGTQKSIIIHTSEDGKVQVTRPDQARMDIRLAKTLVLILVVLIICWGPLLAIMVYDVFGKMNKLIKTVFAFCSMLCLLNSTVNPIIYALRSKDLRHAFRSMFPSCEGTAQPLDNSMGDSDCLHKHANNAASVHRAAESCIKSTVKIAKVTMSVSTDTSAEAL
Assay [5] has as its target 5-hydroxytryptamine receptor 2A (Homo sapiens, UniProt P28223). Type of assay: functional, cell-based.
The target in assay [6] is Vasopressin V1a receptor (Homo sapiens, UniProt P37288).
Sequence of Vasopressin V1a receptor (P37288 whole entry): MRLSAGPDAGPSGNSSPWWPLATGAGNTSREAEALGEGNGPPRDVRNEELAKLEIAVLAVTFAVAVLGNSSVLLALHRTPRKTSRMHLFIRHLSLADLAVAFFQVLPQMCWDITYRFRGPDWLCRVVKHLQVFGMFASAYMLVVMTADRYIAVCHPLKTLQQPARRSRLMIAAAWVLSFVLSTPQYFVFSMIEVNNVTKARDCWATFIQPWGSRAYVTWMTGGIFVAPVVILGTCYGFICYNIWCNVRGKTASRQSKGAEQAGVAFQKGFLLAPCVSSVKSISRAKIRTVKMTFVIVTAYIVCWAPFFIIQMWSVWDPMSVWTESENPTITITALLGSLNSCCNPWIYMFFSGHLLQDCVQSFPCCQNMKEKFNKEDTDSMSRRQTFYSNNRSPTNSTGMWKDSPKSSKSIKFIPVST
The target in assay [7] is T3, Cannabinoid receptor 1. It is filed as functional, cell-based.
Assay [8] deals with T4, Gastrin/cholecystokinin type B receptor (Homo sapiens, UniProt P32239).
T4 sequence (P32239 whole entry): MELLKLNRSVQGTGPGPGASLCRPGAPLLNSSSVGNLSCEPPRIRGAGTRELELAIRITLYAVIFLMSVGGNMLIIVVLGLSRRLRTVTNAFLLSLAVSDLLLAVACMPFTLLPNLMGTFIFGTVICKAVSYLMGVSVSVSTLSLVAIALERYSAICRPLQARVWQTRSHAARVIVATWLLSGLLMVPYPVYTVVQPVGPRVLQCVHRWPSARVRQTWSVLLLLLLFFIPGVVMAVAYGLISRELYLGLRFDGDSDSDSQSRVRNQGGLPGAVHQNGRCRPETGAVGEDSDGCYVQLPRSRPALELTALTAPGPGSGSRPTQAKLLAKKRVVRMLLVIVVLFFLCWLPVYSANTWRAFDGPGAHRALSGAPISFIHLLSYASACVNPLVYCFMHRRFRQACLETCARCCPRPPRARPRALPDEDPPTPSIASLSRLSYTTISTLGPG

The target in assay [9] is T5, Thromboxane A2 receptor (Homo sapiens, UniProt P21731).
T5 sequence (P21731 whole entry): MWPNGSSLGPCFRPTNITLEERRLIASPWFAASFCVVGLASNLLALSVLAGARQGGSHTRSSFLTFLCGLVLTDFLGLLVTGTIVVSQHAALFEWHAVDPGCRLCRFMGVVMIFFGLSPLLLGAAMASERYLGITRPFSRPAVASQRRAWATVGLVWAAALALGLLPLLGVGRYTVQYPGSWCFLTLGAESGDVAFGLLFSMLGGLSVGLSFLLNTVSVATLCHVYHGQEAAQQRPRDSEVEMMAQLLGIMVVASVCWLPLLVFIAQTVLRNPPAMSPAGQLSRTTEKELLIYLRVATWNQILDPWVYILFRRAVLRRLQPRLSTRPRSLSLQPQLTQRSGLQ
Type of assay: functional, cell-based.

For assay [10], the target named is Sodium-dependent dopamine transporter (Homo sapiens, UniProt Q01959).
Sequence of Sodium-dependent dopamine transporter (Q01959 whole entry): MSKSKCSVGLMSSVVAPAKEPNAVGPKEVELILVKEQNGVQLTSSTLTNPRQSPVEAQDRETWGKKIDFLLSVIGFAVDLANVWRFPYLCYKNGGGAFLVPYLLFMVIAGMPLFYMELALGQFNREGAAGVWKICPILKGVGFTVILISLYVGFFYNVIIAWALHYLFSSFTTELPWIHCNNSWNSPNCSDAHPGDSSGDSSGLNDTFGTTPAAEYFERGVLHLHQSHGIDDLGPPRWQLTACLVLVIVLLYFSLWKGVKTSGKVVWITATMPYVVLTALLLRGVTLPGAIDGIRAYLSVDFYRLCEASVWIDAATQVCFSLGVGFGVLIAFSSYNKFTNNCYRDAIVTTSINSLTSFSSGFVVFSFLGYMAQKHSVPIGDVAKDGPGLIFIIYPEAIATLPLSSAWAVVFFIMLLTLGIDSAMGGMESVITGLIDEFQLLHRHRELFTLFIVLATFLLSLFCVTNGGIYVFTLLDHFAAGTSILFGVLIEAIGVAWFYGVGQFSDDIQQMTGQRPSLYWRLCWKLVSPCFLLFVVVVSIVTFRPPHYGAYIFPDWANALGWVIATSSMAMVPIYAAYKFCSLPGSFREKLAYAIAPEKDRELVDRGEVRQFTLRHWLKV
Assay [11] has as its target 3',5'-cyclic-AMP phosphodiesterase 4A (Homo sapiens, UniProt P27815). It is filed as functional.
Assay [12] deals with Mu-type opioid receptor (Homo sapiens, UniProt P35372).
Sequence of Mu-type opioid receptor (P35372 whole entry): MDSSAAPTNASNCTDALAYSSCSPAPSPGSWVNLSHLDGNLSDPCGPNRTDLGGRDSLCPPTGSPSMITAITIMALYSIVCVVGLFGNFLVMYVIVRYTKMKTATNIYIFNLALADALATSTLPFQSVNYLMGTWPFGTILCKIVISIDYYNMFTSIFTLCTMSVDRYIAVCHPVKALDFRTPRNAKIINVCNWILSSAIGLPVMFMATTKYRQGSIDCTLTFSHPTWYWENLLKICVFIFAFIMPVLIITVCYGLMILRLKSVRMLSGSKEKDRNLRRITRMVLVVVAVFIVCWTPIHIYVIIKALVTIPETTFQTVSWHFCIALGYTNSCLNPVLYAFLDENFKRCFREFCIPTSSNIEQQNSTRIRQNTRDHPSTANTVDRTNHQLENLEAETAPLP
Assay [13] has as its target T6, Amine oxidase [flavin-containing] A (Homo sapiens, UniProt P21397).
T6 sequence (P21397 whole entry): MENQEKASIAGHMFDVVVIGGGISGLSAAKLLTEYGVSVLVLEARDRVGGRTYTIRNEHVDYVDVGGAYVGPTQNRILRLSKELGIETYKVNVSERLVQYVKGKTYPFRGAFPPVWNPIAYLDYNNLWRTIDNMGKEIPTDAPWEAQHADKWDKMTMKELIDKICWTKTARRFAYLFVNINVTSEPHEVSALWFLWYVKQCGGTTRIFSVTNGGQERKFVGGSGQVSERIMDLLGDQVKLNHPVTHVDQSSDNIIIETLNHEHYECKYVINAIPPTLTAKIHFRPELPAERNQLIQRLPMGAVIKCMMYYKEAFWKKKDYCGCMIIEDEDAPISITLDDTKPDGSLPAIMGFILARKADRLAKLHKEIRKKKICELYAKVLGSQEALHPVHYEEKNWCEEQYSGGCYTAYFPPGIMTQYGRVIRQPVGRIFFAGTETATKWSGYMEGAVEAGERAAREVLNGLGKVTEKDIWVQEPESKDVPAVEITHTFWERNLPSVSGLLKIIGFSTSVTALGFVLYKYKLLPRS
Type of assay: functional.
Also: assay procedure not described here.

Sequence of 3',5'-cyclic-AMP phosphodiesterase 4A (P27815 whole entry): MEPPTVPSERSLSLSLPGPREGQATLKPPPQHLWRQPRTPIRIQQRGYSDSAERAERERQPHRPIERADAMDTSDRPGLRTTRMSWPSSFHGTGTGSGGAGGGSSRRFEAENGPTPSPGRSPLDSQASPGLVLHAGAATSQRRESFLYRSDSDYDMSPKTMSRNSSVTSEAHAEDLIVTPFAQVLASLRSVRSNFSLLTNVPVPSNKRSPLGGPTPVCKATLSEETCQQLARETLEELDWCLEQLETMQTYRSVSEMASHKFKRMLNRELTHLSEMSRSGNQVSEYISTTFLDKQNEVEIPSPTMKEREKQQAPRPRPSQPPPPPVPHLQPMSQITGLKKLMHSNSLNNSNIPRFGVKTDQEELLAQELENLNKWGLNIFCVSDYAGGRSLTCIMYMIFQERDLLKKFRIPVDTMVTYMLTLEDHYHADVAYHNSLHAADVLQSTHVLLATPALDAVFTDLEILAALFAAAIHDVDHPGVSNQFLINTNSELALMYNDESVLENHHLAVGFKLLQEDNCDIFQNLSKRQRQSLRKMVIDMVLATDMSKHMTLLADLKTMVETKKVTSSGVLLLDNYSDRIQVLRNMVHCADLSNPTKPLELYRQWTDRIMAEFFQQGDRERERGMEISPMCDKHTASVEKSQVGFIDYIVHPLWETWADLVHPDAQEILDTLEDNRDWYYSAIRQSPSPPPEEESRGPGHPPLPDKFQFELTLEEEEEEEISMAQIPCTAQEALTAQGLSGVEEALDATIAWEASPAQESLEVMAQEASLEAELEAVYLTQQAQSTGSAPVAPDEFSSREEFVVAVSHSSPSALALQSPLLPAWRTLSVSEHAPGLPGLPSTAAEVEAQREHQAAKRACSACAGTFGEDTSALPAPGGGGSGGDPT
Sequence of 5-hydroxytryptamine receptor 2A (P28223 whole entry): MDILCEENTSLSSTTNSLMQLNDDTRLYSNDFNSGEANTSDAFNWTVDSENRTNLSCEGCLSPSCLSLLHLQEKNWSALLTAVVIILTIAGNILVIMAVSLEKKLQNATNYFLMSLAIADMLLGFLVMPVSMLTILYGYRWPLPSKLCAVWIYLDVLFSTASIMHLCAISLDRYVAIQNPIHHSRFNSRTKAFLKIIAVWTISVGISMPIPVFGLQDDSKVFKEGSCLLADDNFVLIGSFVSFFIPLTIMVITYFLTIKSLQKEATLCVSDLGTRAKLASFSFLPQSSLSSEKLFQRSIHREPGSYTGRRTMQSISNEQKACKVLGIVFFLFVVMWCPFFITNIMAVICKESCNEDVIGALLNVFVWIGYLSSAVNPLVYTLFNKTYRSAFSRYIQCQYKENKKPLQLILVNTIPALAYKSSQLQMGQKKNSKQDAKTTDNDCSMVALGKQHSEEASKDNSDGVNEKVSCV

In general, AC50 refers to the concentration giving half of the maximal activity seen. With `CO/N=C(\C(=O)N[C@@H]1C(=O)N2C(C(=O)[O-])=C(C[N+]3(C)CCCC3)CS[C@H]12)c1csc(N)n1`, the AC50 was above 300 µM in [1]; above 30 µM in [2]; above 300 µM in assay [3]; above 30 µM in assay [4]; above 300 µM in assay [5]; above 300 µM in assay [6]. Besides, the AC50 in assay [7] was above 300 µM; in assay [8], above 30 µM.

For `COC(=O)N[C@H](C(=O)N1CCC[C@H]1c1nc(-c2ccc(-c3ccc(-c4c[nH]c([C@@H]5CCCN5C(=O)[C@@H](NC(=O)OC)C(C)C)n4)cc3)cc2)c[nH]1)C(C)C`, the concentration at half-maximal activity (AC50) in assay [1], in assay [2], in assay [3], in assay [4], in [5] and in [6] was above 30 µM each time. The concentration at half-maximal activity (AC50) in [8] was above 30 µM.

With `Nc1nc(N)c2nc(-c3ccccc3)c(N)nc2n1`, the AC50 in assay [9] is above 30 µM; in [10], above 30 µM; in assay [2] it was above 30 µM; in [3] it was above 30 µM; in [4], above 30 µM; in assay [11], 20.8 µM. The AC50 is 29.1 µM in assay [12]; above 30 µM in assay [6]; above 30 µM in assay [13]; above 30 µM in assay [7]; above 30 µM in assay [8].

As to `C[C@H]1O[C@H](O[C@H]2[C@H](O)[C@@H](O)[C@@H](O[C@H]3[C@H](O)[C@@H](O)C(O)O[C@@H]3CO)O[C@@H]2CO)[C@H](O)[C@@H](O)[C@@H]1N[C@H]1C=C(CO)[C@@H](O)[C@H](O)[C@H]1O` (some centres undefined) [ACARBOSE], the AC50 is above 30 µM in [9]; above 30 µM in assay [10]; above 30 µM in assay [3]; above 10 µM in [4]; 5.08 µM in [11]; above 30 µM in assay [12]. For the same compound, the concentration at half-maximal activity (AC50) in assay [6] was above 30 µM; in [13], above 30 µM; in assay [7] it was 30 µM; in assay [8], above 30 µM.

Take `Oc1ncnc2[nH]ncc12` [ALLOPURINOL]: the half-maximal activity concentration (AC50) in [9] was above 30 µM; in [10] it was above 30 µM; in assay [2], above 10 µM; in assay [3], above 30 µM; in assay [4] it was above 10 µM; in [11] it was above 30 µM. Besides, the AC50 is above 30 µM in assay [12]; above 10 µM in assay [6]; above 30 µM in assay [13]; above 30 µM in [7]; above 30 µM in [8].

For the compound `CC(N)Cc1ccccc1` (centres undefined) [AMPHETAMINE], the AC50 in [1] is above 30 µM; in [2], above 10 µM; in assay [3], above 30 µM; in assay [4], above 10 µM; in assay [5] it was above 30 µM; in assay [6] it was above 30 µM. Further, the concentration at half-maximal activity (AC50) in [7] and in [8] was above 30 µM throughout.

As to `COC(=O)N[C@H](C(=O)N[C@@H](Cc1ccccc1)[C@@H](O)CN(Cc1ccc(-c2ccccn2)cc1)NC(=O)[C@@H](NC(=O)OC)C(C)(C)C)C(C)(C)C` [ATAZANAVIR], the concentration at half-maximal activity (AC50) is above 10 µM in [1]; above 10 µM in assay [2]; above 10 µM in assay [4]; above 10 µM in assay [5]; above 30 µM in [6]; above 30 µM in assay [8].

`CC(C)NCC(O)COc1ccc(COCCOC(C)C)cc1` (centres undefined) [BISOPROLOL]: the AC50 was above 10 µM in assay [1]; above 10 µM in assay [2]; above 10 µM in assay [4]; above 30 µM in assay [5]; above 10 µM in [6]; above 30 µM in [8].

In the case of `COc1cc(Nc2c(C#N)cnc3cc(OCCCN4CCN(C)CC4)c(OC)cc23)c(Cl)cc1Cl` [BOSUTINIB], the AC50 in [9] is above 3 µM; in assay [10], 7.55 µM; in assay [1] it was above 10 µM; in [4], above 10 µM; in [11] it was above 30 µM; in [12], 15.3 µM. The results for the AC50 in assay [6], in [13] and in assay [8] were 4.7 µM, above 30 µM and above 30 µM, respectively.

Take `C[C@@H]1O[C@@H]1P(=O)(O)O` [FOSFOMYCIN]: the half-maximal activity concentration (AC50) in assay [1], in assay [2], in assay [4], in assay [5] and in assay [6] was above 10 µM in each case.

For the compound `COc1ccc2c(c1)C(=O)N(CCc1ccc(S(=O)(=O)NC(=O)NC3CCCCC3)cc1)C(=O)C2(C)C` [GLIQUIDONE], the concentration at half-maximal activity (AC50) in assay [1], in assay [2], in [3], in assay [4], in [5] and in assay [6] was above 30 µM in each case. Further, in assay [8], the concentration at half-maximal activity (AC50) was above 10 µM.

In the case of `CN1C(=O)CC(C)(c2ccccc2)C1=O` (centres undefined) [METHSUXIMIDE], the AC50 in assay [1], in assay [2], in assay [4], in assay [5] and in assay [6] was above 10 µM in each case.

Turning to `NC(=O)c1cnccn1` [PYRAZINAMIDE], the half-maximal activity concentration (AC50) in [9], in assay [10], in assay [2], in assay [3], in assay [4] and in assay [11] was above 30 µM throughout. The AC50 in assay [12], in assay [6], in assay [13], in assay [7] and in assay [8] was above 30 µM in each case.

On to `CC(C(=O)O)c1ccc(C(=O)c2cccs2)cc1` (centres undefined) [SUPROFEN], for which the AC50 in assay [1], in [2], in [4], in [5] and in assay [6] was above 10 µM in each case.

`Cc1ccc(C(=O)c2cc(O)c(O)c([N+](=O)[O-])c2)cc1` [TOLCAPONE]: the concentration at half-maximal activity (AC50) in assay [1], in assay [2], in assay [4], in assay [5] and in assay [6] was above 10 µM each time.
